Assay results: US20260306524A1, “Guanidinylated Amphiphilic Tobramycin Derivates and B-Lactam/B-Lactamase Inhibitor Combinations for Treatment of Pseudomonas Aeruginosa Infections” (University of Manitoba, priority 2023, published 2026)
Like-named read-outs stand apart in the source and are kept apart here.

Tests used:
HEK293 cells = experiment: Cell viability (cytotoxicity) assay, HEK293; type: cell-based, human; details: for cell viability compared to non-guanidinylated counterpart: HEK293, higher concentrations; for cell viability compared to 1: HEK293, up to 600 μM
Experimental: (§1) As an initial screening of the toxicity, the cell viability of the tobramycin derivatives was assessed in human embryonic kidney (HEK) 293 cell lines. Polymyxin B was utilized as […] and by being a membrane permeabilizing amphiphile resembling the tobramycin derivatives.
(§2) The cytotoxicity assay was conducted as previously described (24, 30). HEK293 cells were cultured in flasks with Dulbecco's Modified Eagle's Medium (DMEM) supplemented with 10% fetal bovine serum. The cells were incubated at 5% CO2 in a humidified atmosphere at 37° C. 50 μL of media containing approximately 8000 cells were added to designated wells in a 96-well plate. The wells containing only media with no cells served as blanks. The plate was incubated for 24 h. A volume of 50 μL of doubled the final desired concentrations of the agent were subsequently added to the experimental and blank wells. After 48 h incubation, PrestoBlue reagent from Invitrogen (United States) was added to a final concentration of 10% (v/v) and plates were incubated for an additional 1 hour at 5% CO2. Fluorescence was measured with excitation and emission wavelengths of 560 and 590 nm, respectively, using the Molecular Devices (United States) SpectraMax M2 plate reader. Values from the blank wells were subtracted from the corresponding wells with cells. The cell viability relative to the controls with vehicle was calculated. The plots indicate the mean±standard deviation of two experiments with five samples each.

[1] = Cell viability (cytotoxicity) assay, HEK293; type: cell-based, human; details: human, hek293 cells
Experimental: as §1, §2

[2] = system: MDR clinical isolates of P. aeruginosa; experiment: MIC against MDR clinical isolates; type: cell-based; details: Pseudomonas aeruginosa, 18 h; all MDR strains tested, alone
Experimental: The synergism of the guanidinylated amphiphilic tobramycin derivatives with ceftazidime, aztreonam and piperacillin against PAO1 prompted further investigation against MDR clinical isolates of P. aeruginosa. Prior to the checkerboard assays, the MICs of 5 and 8 were determined to be >128 μg/mL against all strains tested.
All antibiotics were purchased from commercial sources. Bacterial isolates were obtained from the American Type Culture Collection (ATCC), and from the Canadian National Intensive Care Unit (CAN-ICU) (59) and Canadian Ward (CANWARD) surveillance studies (60). CAN-ICU and CANWARD clinical isolates were collected from patients with presumed infectious diseases admitted in participating Canadian medical centers either to the intensive care unit or medical wards. Prior to microbiological testing, bacterial cultures were grown overnight in lysogeny broth (LB) at 37° C., shaking at 250 rpm.
(§3) The broth microdilution assay was performed in accordance with standard protocols as previously described (61). […] After incubation, Molecular Devices (United States) Emax Plus microplate reader was used to measure the optical density (OD) at a wavelength of 590 nm to confirm the turbidity. The minimum inhibitory concentration (MIC) was determined as the lowest concentration that inhibited visible bacterial growth.

P. aeruginosa PAO1 [3] = experiment: Potentiation of rifampicin, PAO1; type: cell-based, Pseudomonas aeruginosa
From the text: Another evidence of OM permeabilization is the ability of the guanidinylated amphiphilic tobramycin derivatives to synergize with membrane-impermeable antibiotics such as rifampicin. 5 and 8 potentiated rifampicin by 16- and 64-fold, respectively, against PAO1. Rifampicin has limited capacity in crossing the OM of Gram-negative bacteria, and is restricted to treating infections caused by Mycobacteria and Gram-positive cocci (48). Unlike the BL antibiotics that permeate the OM through a porin-mediated uptake, the large molecular weight and hydrophobicity of rifampicin make it unable to enter the narrow porins, and rely on slow passive diffusion to traverse the lipid bilayer (49). Therefore, the augmented potency of rifampicin against P. aeruginosa is linked to its increased intracellular concentration through OM destabilization.
(§4) The checkerboard assay was conducted as previously described (61). The bacterial solution was prepared as described in the broth microdilution method. The antibiotic of interest was serially diluted two-fold along the x-axis, and the adjuvant is serially diluted two-fold along the y-axis in a 96-well plate. Equal volumes of bacterial solution were added to the designated wells. […] After incubation, Molecular Devices (United States) Emax Plus microplate reader was used to measure the OD at a wavelength of 590 nm. […]

P. aeruginosa PAO1 [4] = experiment: Checkerboard synergy with β-lactam antibiotics, PAO1; type: cell-based, Pseudomonas aeruginosa; details: for active concentration: equivalent to 6 μM
Experimental: After establishing the MIC of the tobramycin derivatives, the ability of these adjuvants to synergize with BL antibiotics was investigated against P. aeruginosa PAO1. The checkerboard assays were conducted as previously described and in accordance with the CLSI guidelines (37). Synergy was defined by at least a 4-fold reduction in the MICs of both adjuvant and antibiotic. The panel of antibiotics are comprised of commonly used antipseudomonal agents and represent the different BL subclasses—cephalosporin (ceftazidime), monobactam (aztreonam), penicillin (piperacillin) and carbapenems (imipenem and meropenem) (12).
The checkerboard assay was conducted as previously described (61). The bacterial solution was prepared as described in the broth microdilution method. The antibiotic of interest was serially diluted two-fold along the x-axis, and the adjuvant is serially diluted two-fold along the y-axis in a 96-well plate. Equal volumes of bacterial solution were added to the designated wells. The first row and columns are used to verify the MIC of the antibiotic and adjuvant, respectively. The well containing only broth served as negative control, while the well containing the broth and bacterial solution served as positive control. The plate was then incubated at 37° C. for 18 hours. After incubation, Molecular Devices (United States) Emax Plus microplate reader was used to measure the OD at a wavelength of 590 nm. Synergy was determined by at least a 4-fold reduction of the MIC of both agents.

[5] = system: β-lactamase harboring P. aeruginosa isolates; experiment: Checkerboard dual and triple combinations, β-lactamase harboring isolates; type: cell-based, Pseudomonas aeruginosa; details: checkerboard assays
From the text: (§5) Since the main resistance mechanism against BL antibiotics is the hydrolysis by β-lactamase enzymes (46), it is imperative that the synergy evaluation is extended to P. aeruginosa strains containing these enzymes. Based on the results of the checkerboard assays against the MDR strains, the synergy of 5 and 8 with ceftazidime and aztreonam was further assessed against β-lactamase harboring P. aeruginosa isolates. These strains are characterized by their increased susceptibility to ceftazidime with the addition of avibactam. In addition, a triple combination therapy consisting of the tobramycin derivative, either BL antibiotic and avibactam was also investigated.
as §4, with “wells. The first row and columns are used to verify the MIC of the antibiotic and adjuvant, respectively.” for “wells.”

PA 86052 = experiment: Time-kill kinetics assay, PA 86052; type: cell-based, Pseudomonas aeruginosa
Experimental: (§6) To elucidate the mechanistic killing of the triple combination studies, the time-kill kinetics assay was performed as previously described (32). […] 8 μg/mL of ceftazidime and 2 μg/mL avibactam were used to reflect the clinically used 4:1 ratio.
(§7) Time-kill curve analyses were performed as previously described (32). An inoculum of the culture was then diluted in 0.85% saline solution to attain 0.5 McFarland turbidity. The inoculum was further diluted in lysogeny broth (LB) containing different antibiotic and adjuvant concentrations. The culture tubes were incubated at 37° C., shaking at 250 rpm. At specific time intervals, an aliquot was taken from each tube, serially diluted in sterile phosphate-buffered saline (PBS) and plated on LB agar plates. The plates were incubated at 37° C. overnight and the bacterial colonies were counted the subsequent day. The bactericidal or bacteriostatic activity was determined based on the decrease in CFU over the designated time period. Bactericidal activity corresponded to ≥3 log reduction in CFU/mL, while bacteriostatic activity corresponded to <3 log reduction in CFU/mL.

PA 107092 = experiment: Time-kill kinetics assay, PA 107092; type: cell-based, Pseudomonas aeruginosa
Experimental: as §6, §7

[6] = system: β-lactamase harboring P. aeruginosa isolates; experiment: MIC against β-lactamase harboring isolates; type: cell-based; details: Pseudomonas aeruginosa, 18 h
From the text: as §5
as §3, with “(61). An inoculum of the culture was diluted in 0.85% saline solution to attain 0.5 McFarland turbidity. The inoculum was further diluted in Mueller-Hinton broth (MHB) for inoculation to a final concentration of 5×10^5 colony forming units/mL (CFU/mL). The agents were serially diluted two-fold in CA-MHB in a 96-well plate.” for “(61).”

N=C(N)NC[C@H]1O[C@H](O[C@H]2[C@H](O)[C@@H](O[C@H]3O[C@H](CO)[C@@H](O)[C@H](NC(=N)N)[C@H]3O)[C@H](NC(=N)N)C[C@@H]2NC(=N)N)[C@H](NC(=N)N)C[C@@H]1O [Compound 2, guanidinylated tobramycin, reference compound]
cell viability compared to non-guanidinylated counterpart (HEK293 cells): slight decrease in the cell viability

CCCCCCCCCCCCOC1C(OC2OC(CN)C(O)CC2N)C(N)CC(N)C1OC1OC(CO)C(O)C(N)C1O (stereo not shown) [Compound 3]
cytotoxicity (HEK293 cells; HEK293, at 600 μM, relative to tobramycin): highly toxic relative to tobramycin, causing cell death at 600 μM

CCCCCCCCOC1C(OC2OC(CN)C(O)CC2N)C(N)CC(N)C1OC1OC(CO)C(O)C(N)C1O (stereo not shown) [Compound 4, 5-O-(Octyl)-tobramycin]
viability at 48 h, 600 µM ([1]; HEK293, up to 600 μM): 86 to 101%
cell viability compared to 1 (HEK293 cells): comparable to 1

CCCCCCCCOC1C(OC2OC(CNC(=N)N)C(O)CC2NC(=N)N)C(NC(=N)N)CC(NC(=N)N)C1OC1OC(CO)C(O)C(NC(=N)N)C1O (stereo not shown) [Compound 5, 5-O-(Octyl)-guanidinotobramycin]
MIC [2]: > 128 µg/mL
viability at 48 h, 600 µM ([1]; HEK293, 600 μM): 63.8%
cytotoxicity compared to PMB (HEK293 cells; HEK293, 600 μM): comparable toxicity
fold potentiation of rifampicin (P. aeruginosa PAO1 [3]): 16 fold
active concentration (P. aeruginosa PAO1 [4]): ~ 8 μg/mL

NCCCCCCCCOC1C(OC2OC(CN)C(O)CC2N)C(N)CC(N)C1OC1OC(CO)C(O)C(N)C1O (stereo not shown) [Compound 6, 5-O-(8-Aminooctyl)-tobramycin]
cell viability at 600 μM compared to 4 (HEK293 cells; HEK293, 600 μM): lower in comparison to 4
fold potentiation of ceftazidime (P. aeruginosa PAO1 [4]; PAO1, 8 μg/mL of adjuvant): 4 fold

NC[C@H]1O[C@H](O[C@H]2[C@H](OCc3ccc(-c4ccccc4)cc3)[C@@H](O[C@H]3O[C@H](CO)[C@@H](O)[C@H](N)[C@H]3O)[C@H](N)C[C@@H]2N)[C@H](N)C[C@@H]1O [Compound 7, 5-O-(4-Methylbiphenyl)-tobramycin]
viability at 48 h, 600 µM ([1]; HEK293, up to 600 μM): 86 to 101%
cell viability compared to 1 (HEK293 cells): comparable to 1

N=C(N)NC[C@H]1O[C@H](O[C@H]2[C@H](OCc3ccc(-c4ccccc4)cc3)[C@@H](O[C@H]3O[C@H](CO)[C@@H](O)[C@H](NC(=N)N)[C@H]3O)[C@H](NC(=N)N)C[C@@H]2NC(=N)N)[C@H](NC(=N)N)C[C@@H]1O [Compound 8, 5-O-(4-Methylbiphenyl)-guanidinotobramycin]
lowest concentration wherein synergy was observed [5]: 8 µg/mL
MIC [2]: > 128 µg/mL
viability at 48 h, 600 µM ([1]; HEK293, 600 μM): 79.8%
selectivity ratio ([1]; HEK293, active concentration 8 μg/mL, read-out: non-cytotoxic concentration (600 μM, 848.04 μg/mL) as multiple of active concentration): ~106
cytotoxicity up to approximately 106 times the active concentration (HEK293 cells; HEK293): non-cytotoxic
cytotoxicity compared to PMB (HEK293 cells; HEK293, 600 μM): reduced cytotoxicity than PMB
cell viability compared to non-guanidinylated counterpart (HEK293 cells): slight decrease in the cell viability
fold potentiation of rifampicin (P. aeruginosa PAO1 [3]): 64 fold
active concentration (P. aeruginosa PAO1 [4]): ~ 8 μg/mL
log reduction in CFU/mL, triple combination (PA 86052; 8 μg/mL of 8, ceftazidime 8 μg/mL, avibactam 2 μg/mL, within 8 hours): > 3 log
time to bactericidal effect, triple combination (PA 86052; 8 with ceftazidime/avibactam): ≤ 8 h
log reduction in CFU/mL, triple combination (PA 107092; 8 μg/mL of 8, ceftazidime 8 μg/mL, avibactam 2 μg/mL, at 4 hours): 3 log

COc1cccc2c1C(=O)c1c(O)c3c(c(O)c1C2=O)C[C@@](O)(C(=O)CO)C[C@@H]3O[C@H]1C[C@H](N)[C@H](O)[C@H](C)O1 [Doxorubicin, reference compound]
viability at 48 h, 125 µM ([1]; HEK293, 125 μM): 0%

C[C@H]1[C@H](NC(=O)/C(=N\OC(C)(C)C(=O)O)c2csc(N)n2)C(=O)N1S(=O)(=O)O [aztreonam]
MIC ([6]; five β-lactamase harboring strains, read-out: MIC of aztreonam monotherapy): 32 to 128 µg/mL

CC(C)(O/N=C(\C(=O)N[C@@H]1C(=O)N2C(C(=O)[O-])=C(C[n+]3ccccc3)CS[C@H]12)c1csc(N)n1)C(=O)O [ceftazidime, reference compound]
MIC ([6]; all five β-lactamase harboring strains, read-out: MIC of ceftazidime monotherapy): 64 to 128 µg/mL
antibacterial effect over 24 h (PA 86052; 8 μg/mL ceftazidime, 2 μg/mL avibactam): did not exhibit any antibacterial effect
antibacterial effect over 24 h, monotherapy (PA 107092; 8 μg/mL ceftazidime): ineffective

Polymyxin B [PMB, reference compound]
cell viability (HEK293 cells; HEK293, 600 μM, 2880 min): 64.7%
